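Interpolation was linear, between the two tested concentrations surrounding the appropriate level; five concentrations were tested over 48 hours in 96-well plates. Here, GI50 denotes the concentration required for 50% inhibition of growth. TGI: concentration producing complete growth inhibition.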
Experiments:
Assay in all cases: growth of human tumour cells (NCI), 48 h
[1] = system: MCF7 breast
[2] = system: HL-60(TB) leukemia
[3] = system: 786-0 renal
[4] = system: NCI/ADR-RES ovarian
[5] = system: OVCAR-8 ovarian
[6] = system: RPMI-8226 leukemia
[7] = system: SK-MEL-5 melanoma
[8] = system: SF-295 CNS
[9] = system: MALME-3M melanoma
[10] = system: SF-268 CNS
[11] = system: PC-3 prostate
[12] = system: DU-145 prostate
[13] = system: OVCAR-4 ovarian
[14] = system: NCI-H226 lung
[15] = system: SK-OV-3 ovarian
[16] = system: HCC-2998 colon
[17] = system: IGROV1 ovarian
[18] = system: MDA-MB-231 breast
[19] = system: SNB-19 CNS
[20] = system: LOX IMVI melanoma
[21] = system: HS 578T breast
[22] = system: A549 NSCLC
[23] = system: A498 renal
[24] = system: HCT-15 colon
[25] = system: UO-31 renal
[26] = system: T-47D breast
[27] = system: SW-620 colon
[28] = system: M14 melanoma
[29] = system: KM12 colon
[30] = system: UACC-62 melanoma
[31] = system: CAKI-1 renal
[32] = system: HOP-62 NSCLC
[33] = system: MDA-MB-435
[34] = system: NCI-H460 lung
[35] = system: OVCAR-3 ovarian
[36] = system: SR leukemia
[37] = system: MOLT-4 leukemia
[38] = system: SK-MEL-2 melanoma
[39] = system: NCI-H23 lung
[40] = system: HOP-92 NSCLC
[41] = system: SK-MEL-28 melanoma
[42] = system: K-562 leukemia
[43] = system: TK-10 renal
[44] = system: ACHN renal
[45] = system: SN12C renal
[46] = system: OVCAR-5 ovarian
[47] = system: SNB-75 CNS
[48] = system: HT29 colon
[49] = system: U251 CNS
[50] = system: EKVX NSCLC
[51] = system: NCI-H522 lung
[52] = system: HCT-116 colon
[53] = system: SF-539 CNS
[54] = system: CCRF-CEM leukemia
[55] = system: UACC-257 melanoma
[56] = system: BT-549 breast
[57] = system: COLO 205 colon

COc1ccc(C(=O)C2C(C#N)C(C#N)C3C=Cc4ccccc4N32)cc1 (stereo not drawn)
GI50 [1]: 1.09 µM
TGI [1]: > 100 µM
GI50 [2]: 1.23 µM
TGI [2]: 19.5 µM
GI50 [3]: 4.43 µM
TGI [3]: > 100 µM
GI50 [4]: 0.571 µM
TGI [4]: > 100 µM
GI50 [5]: 3.29 µM
TGI [5]: > 100 µM
GI50 [6]: 3.48 µM
TGI [6]: > 100 µM
GI50 [7]: 3.49 µM
TGI [7]: 19.8 µM
GI50 [8]: 2.82 µM
TGI [8]: > 100 µM
GI50 [9]: 2.67 µM
TGI [9]: > 100 µM
GI50 [10]: 3.92 µM
TGI [10]: > 100 µM
GI50 [11]: 1.45 µM
TGI [11]: > 100 µM
GI50 [12]: 2.93 µM
TGI [12]: > 100 µM
GI50 [13]: 6 µM
TGI [13]: > 100 µM
GI50 [14]: 2.29 µM
TGI [14]: 30.2 µM
GI50 [15]: 7.3 µM
TGI [15]: > 100 µM
GI50 [16]: 2.99 µM
TGI [16]: > 100 µM
GI50 [17]: 2.74 µM
TGI [17]: > 100 µM
GI50 [18]: 1.46 µM
TGI [18]: 44.1 µM
GI50 [19]: 3.71 µM
TGI [19]: > 100 µM
GI50 [20]: 2.1 µM
TGI [20]: > 100 µM
GI50 [21]: 2.1 µM
TGI [21]: > 100 µM
GI50 [22]: 2.4 µM
TGI [22]: > 100 µM
GI50 [23]: 0.244 µM
TGI [23]: 3.13 µM
GI50 [24]: 0.844 µM
TGI [24]: > 100 µM
GI50 [25]: 1.95 µM
TGI [25]: > 100 µM
GI50 [26]: 23.9 µM
TGI [26]: > 100 µM
GI50 [27]: 0.714 µM
TGI [27]: > 100 µM
GI50 [28]: 0.5 µM
TGI [28]: > 100 µM
GI50 [29]: 1.25 µM
TGI [29]: > 100 µM
GI50 [30]: 0.781 µM
TGI [30]: > 100 µM
GI50 [31]: 0.46 µM
TGI [31]: > 100 µM
GI50 [32]: 3.76 µM
TGI [32]: > 100 µM
GI50 [33]: 0.335 µM
TGI [33]: 1.24 µM
GI50 [34]: 0.749 µM
TGI [34]: > 100 µM
GI50 [35]: 0.642 µM
TGI [35]: 4.22 µM
GI50 [36]: 0.544 µM
TGI [36]: > 100 µM
GI50 [37]: 2.6 µM
TGI [37]: > 100 µM
GI50 [38]: 7.44 µM
TGI [38]: > 100 µM
GI50 [39]: 3.62 µM
TGI [39]: > 100 µM
GI50 [40]: 2.77 µM
TGI [40]: > 100 µM
GI50 [41]: 3.77 µM
TGI [41]: > 100 µM
GI50 [42]: 0.405 µM
TGI [42]: > 100 µM
GI50 [43]: > 100 µM
TGI [43]: > 100 µM
GI50 [44]: 1.43 µM
TGI [44]: > 100 µM
GI50 [45]: 2.5 µM
TGI [45]: > 100 µM
GI50 [46]: 3.43 µM
TGI [46]: > 100 µM
GI50 [47]: 0.278 µM
TGI [47]: 5.57 µM
GI50 [48]: 0.742 µM
TGI [48]: > 100 µM
GI50 [49]: 2.82 µM
TGI [49]: > 100 µM
GI50 [50]: 6.29 µM
TGI [50]: > 100 µM
GI50 [51]: 2.45 µM
TGI [51]: > 100 µM
GI50 [52]: 0.653 µM
TGI [52]: 14.9 µM
GI50 [53]: 1.32 µM
TGI [53]: 4.08 µM
GI50 [54]: 1.94 µM
TGI [54]: > 100 µM
GI50 [55]: > 100 µM
TGI [55]: > 100 µM
GI50 [56]: 1.98 µM
TGI [56]: > 100 µM

CC12CC[C@@H]3c4cc5c(cc4CC[C@H]3[C@@H]1CCC2O)oc1cc(F)ccc15 (stereo partly drawn)
GI50 [1]: 31.7 µM
TGI [1]: 82.7 µM
GI50 [2]: 7.74 µM
TGI [2]: 39.2 µM
GI50 [3]: 16.1 µM
TGI [3]: 37.4 µM
GI50 [4]: 18.6 µM
TGI [4]: 55.5 µM
GI50 [5]: 20 µM
TGI [5]: 62.6 µM
GI50 [6]: 14.6 µM
TGI [6]: > 100 µM
GI50 [7]: 18.8 µM
TGI [7]: 36 µM
GI50 [8]: 18.3 µM
TGI [8]: 40.2 µM
GI50 [9]: 20.3 µM
TGI [9]: 49.8 µM
GI50 [10]: 18.8 µM
TGI [10]: 62.8 µM
GI50 [11]: 17.3 µM
TGI [11]: 43.2 µM
GI50 [12]: 17.8 µM
TGI [12]: 31.6 µM
GI50 [13]: 17 µM
TGI [13]: 55.6 µM
GI50 [14]: 14.9 µM
TGI [14]: 53 µM
GI50 [15]: 21.5 µM
TGI [15]: 52.1 µM
GI50 [16]: 23.2 µM
TGI [16]: > 100 µM
GI50 [17]: 16.7 µM
TGI [17]: 36.9 µM
GI50 [18]: 14.1 µM
TGI [18]: 34 µM
GI50 [19]: 19 µM
TGI [19]: 40.9 µM
GI50 [20]: 12.1 µM
TGI [20]: 24.5 µM
GI50 [21]: 26.3 µM
TGI [21]: 49.6 µM
GI50 [22]: 33.1 µM
TGI [22]: > 100 µM
TGI [23]: 23.6 µM
GI50 [24]: 10.8 µM
TGI [24]: 31.8 µM
GI50 [25]: 24.3 µM
TGI [25]: 68 µM
GI50 [26]: 12.3 µM
TGI [26]: 52.6 µM
GI50 [27]: 25.6 µM
TGI [27]: 78.9 µM
GI50 [28]: 20.8 µM
TGI [28]: 74.1 µM
GI50 [29]: 17.8 µM
TGI [29]: 45.5 µM
GI50 [30]: 24.4 µM
TGI [30]: > 100 µM
GI50 [31]: 16.1 µM
TGI [31]: 37.4 µM
GI50 [32]: 18.7 µM
TGI [32]: 45.4 µM
GI50 [33]: 39.5 µM
TGI [33]: > 100 µM
GI50 [34]: 15.2 µM
TGI [34]: 36.3 µM
GI50 [35]: 19.1 µM
TGI [35]: 43.3 µM
GI50 [36]: 15.9 µM
TGI [36]: 31 µM
GI50 [37]: 16.2 µM
TGI [37]: 40.6 µM
GI50 [39]: 26.1 µM
TGI [39]: 99.5 µM
GI50 [40]: 21.1 µM
TGI [40]: 63 µM
GI50 [41]: 20.2 µM
TGI [41]: 58.8 µM
GI50 [42]: 8.68 µM
TGI [42]: 47.7 µM
GI50 [43]: 15.6 µM
TGI [43]: 33.9 µM
GI50 [44]: 15.8 µM
TGI [44]: 35.4 µM
GI50 [45]: 19 µM
TGI [45]: 42.5 µM
GI50 [46]: 24.8 µM
TGI [46]: > 100 µM
GI50 [47]: 15.5 µM
TGI [47]: 35.5 µM
GI50 [48]: 12.5 µM
TGI [48]: 25 µM
GI50 [49]: 14.1 µM
TGI [49]: 28.6 µM
GI50 [50]: 15.5 µM
TGI [50]: 49 µM
GI50 [51]: 23.2 µM
TGI [51]: > 100 µM
GI50 [52]: 13.9 µM
TGI [52]: 30.6 µM
GI50 [53]: 22.7 µM
TGI [53]: 54.7 µM
GI50 [54]: 27.9 µM
TGI [54]: > 100 µM
GI50 [55]: 21.6 µM
TGI [55]: 74.8 µM
GI50 [56]: 17.7 µM
TGI [56]: 39.1 µM
GI50 [57]: 17.1 µM
TGI [57]: 36.2 µM

COc1cccc(C2SCC(=O)N2c2ccc(-c3ccc(-n4c(-c5ccccc5)nc5ccccc5c4=O)cc3)cc2)c1OC (stereo not drawn)
TGI [1]: > 100 µM
TGI [2]: > 100 µM
TGI [3]: > 100 µM
TGI [4]: > 100 µM
TGI [5]: > 100 µM
TGI [6]: > 100 µM
TGI [7]: > 100 µM
TGI [8]: > 100 µM
TGI [9]: > 100 µM
TGI [10]: > 100 µM
TGI [11]: > 100 µM
TGI [12]: > 100 µM
TGI [13]: > 100 µM
TGI [14]: > 100 µM
TGI [16]: > 100 µM
TGI [17]: > 100 µM
TGI [18]: > 100 µM
TGI [19]: > 100 µM
TGI [20]: > 100 µM
TGI [21]: > 100 µM
TGI [22]: > 100 µM
TGI [23]: > 100 µM
TGI [24]: > 100 µM
TGI [25]: > 100 µM
TGI [26]: > 100 µM
TGI [28]: > 100 µM
TGI [29]: > 100 µM
TGI [30]: > 100 µM
TGI [31]: > 100 µM
TGI [32]: > 100 µM
TGI [33]: > 100 µM
TGI [34]: > 100 µM
TGI [35]: > 100 µM
TGI [36]: > 100 µM
TGI [37]: > 100 µM
TGI [38]: > 100 µM
TGI [39]: > 100 µM
TGI [40]: > 100 µM
TGI [41]: > 100 µM
TGI [42]: > 100 µM
TGI [43]: > 100 µM
TGI [44]: > 100 µM
TGI [45]: > 100 µM
TGI [46]: > 100 µM
TGI [47]: 89.1 µM
TGI [48]: > 100 µM
TGI [49]: > 100 µM
TGI [50]: > 100 µM
TGI [51]: > 100 µM
TGI [52]: > 100 µM
TGI [53]: > 100 µM
TGI [54]: > 100 µM
TGI [55]: > 100 µM
TGI [56]: > 100 µM
TGI [57]: > 100 µM

From PubChem BioAssay (NCI)
